The values that follow come from patent US20080081781A1, “Methods and compositions for the treatment of metabolic syndrome” (priority 2004, published 2008).

For experiment [1], the system named is high fat high cholesterol (HFHC) diet rats. The experiment in a line: Combination treatment with berberine and simvastatin in HFHC diet rats (Table 8). Conditions: oral, after 25 days, daily dose berberine 100 mg/kg, simvastatin 25 mg/kg, combination 100 + 25, average ± standard error. The experiment is classed as in vivo, rat. As for the experimental part:
Rats were fed a high fat high cholesterol (HFHC) diet for 10 days, and then divided into groups of seven. The rats were then administered berberine or simvastatin, or a combination of berberine and simvastatin orally for 25 days. After 25 days, serum cholesterol, triglyceride and LDL-c levels were measured. […] The combination of simvastatin, and berberine lowered the cholesterol, triglyceride and LDL-c levels further than either alone.

In experiment [2] the test system is PPAR-r mRNA. Briefly: PPAR-r mRNA expression in liver cells. The experiment is classed as cell-based. The conditions noted are these: liver cells (data not shown). The source says: The effect of berberine on InsR was further confirmed in another hepatoma cell line, Bel-7402 […] (FIG. 18). […] The expression of PPAR-r mRNA in liver cells was not changed by berberine (data not shown).

Experiment [3] concerns LDLR promoter. Briefly: LDLR promoter activity, pLDLR234Luc reporter in HepG2 cells. The experiment is classed as cell-based, human. Conditions: pLDLR234Luc HepG2, LPDS or LPDS and cholesterol medium, 8 hour treatment. The source says: HepG2 cells were transfected with the reporter construct pLDLR234Luc, which contains the SRE- I motif and the sterol-independent regulatory element that mediates the cytokine oncostatin M-induced transcription of the LDLR gene.

The test system of experiment [4] is InsR mRNA. The experiment in a line: InsR mRNA stability after actinomycin D in HepG2 cells (slot blot). The experiment is classed as cell-based, human. The conditions noted are these: HepG2, […] 8 h then actinomycin D; untreated cells 4.4 hr. How it is done: HepG2 cells were treated or untreated with 7.5 μg/ml of berberine for 8 h. Then, 5 μg/ml of actinomycin D was added to block the transcription. Total cellular RNA was harvested at 0, 2, 4, 6, or 8 hours after actinomycin D treatment, and slot-blotted to nitrocellulose membranes as described above. The membranes were respectively hybridized with InsR and ACTB specific probes as described above, and bands were quantitated through densitometry. The InsR mRNA levels were normalized to ACTB, and their remaining percentages are plotted against time and the decaying rate or half-life of InsR mRNA was calculated (FIG. 21B).

Experiment [5] deals with LDLR mRNA 3'UTR. Briefly: Luc-LDLR 3'UTR chimeric transcripts in transfected HepG2 cells. The experiment is classed as cell-based, human. Conditions: transfected HepG2, berberine eight hours. An excerpt: Three consecutive fragments of LDLR 3 ′UTR were inserted into a cytomegalovirus promoter driven Luc plasmid (pLuc) at the 3′ end of the Luc coding sequence before the SV40 polyadenylation signal. The wild-type Luc reporter plasmid pLuc was constructed by insertion of the Luc cDNA into the HindIII and Xba sites of pcDNA3.1/Zeo(+). Addition of the LDLR 3/UTR was accomplished by PCR amplifying different regions of the 2.5 kb 3′UTR of LDLR mRNA using XbaI-tailed primers and pLDLR3 as the template. The wild type pLuc and the chimeric plasmids pLuc-UTR-2, UTR-3 and UTR-4 were transfected into HepG2 cells (FIG. 11). Cells seeded in culture dishes were transiently transfected with the chimeric plasmids. Twenty-four hours after transfection, cells were trypsinized and reseeded equally into two dishes for each plasmid transfection. After overnight incubation, one dish was treated with dimethylsulfoxide as the solvent control and another was treated with berberine for eight hours. […]
To create ARE deletion constructs, an Apa site at nt 3,384 was generated for deleting ARE3, and an Apa1 site at nt 3,334 for deleting ARE2 by site-directed mutagenesis using pLuc/UTR-2 as the template. […] The effects of berberine on the chimeric Luc transcripts were determined by measuring Luc mRNA using a quantitative real-time RT-PCR assay. […]

Experiment [6] deals with InsR. Briefly: Cell surface InsR expression in HepG2 cells (flow cytometry). The experiment is classed as cell-based, human. Conditions: HepG2, 2.5-15 μg/ml, eight hours. How it is done:
The effect of berberine was also time-dependent. HepG2 cells were treated with 7.5 μg/ml for 0, 2, 4, 6, 8 or 24 hours and total RNA was isolated as described above for slot blot and RT-PCR assays of InsR mRNA and ACTB mRNA expression. The level of InsR mRNA increased 4 h after exposure of cells to berberine and reached the peak level of 2.5-fold of the control at 8 h; the expression of InsR mRNA remained high for at least 24 h (FIG. 16). HepG2 cells cultured with 0, 2.5, 5, 10 or 15 μg/ml of berberine or normal mouse IgG (FIG. 17) for eight hours then detached, washed and resuspended in FACS solution (PBS with 0.5% BSA and 0.02% sodium azide) at a density of 1×10^6 cells/ml. Cells were then incubated with a monoclonal antibody to InsR (NeoMarkers, Fremont, Calif.) at a final dilution of 1:100 (room temperature, 0.5 h). An isotype-matched, nonspecific mouse IgG was used as a control for nonspecific staining. Then, cells were washed and stained with FITC conjugated goat-anti-mouse IgG (Santa Cruz Biotech, 1:200 dilution). The fluorescent intensity was examined by flow cytometry (FAC Sort, Becton Dickinson, Calif.).

Experiment [7] deals with LDLR. Briefly: Cell surface LDLR protein on Bel-7402 cells (FACS). The experiment is classed as cell-based, human. The conditions noted are these: Bel-7402 cells treated with 5 μg/ml. How it is done: Bel-7402 cells treated with 5 μg/ml of berberine were detached with cell removal buffer containing EDTA, washed and resuspended in FACS solution (PBS with 0.5% BSA and 0.02% sodium azide) at a density of 1×10^6 cells/ml. Cells were then incubated with monoclonal antibody to LDLR (Santa Cruz Biotechnology, Inc., Santa Cruz, Calif.) at a final dilution of 1:50 and left at room temperature for 1 hour. The cells were then reacted with isotope matched, nonspecific mouse IgG as a control for nonspecific staining. The cells were then washed and stained with FITC conjugated goat antibody to mouse IgG (Santa Cruz Biotechnology, Inc., Santa Cruz, Calif., 1:100 dilution) and the fluorescence intensity was analyzed by FACS (FACSort, Becton Dickinson, Franklin Lakes, N.J.).

As to `COc1ccc2cc3[n+](cc2c1OC)CCc1cc2c(cc1-3)OCO2` [berberine], in experiment [1], the LDL-c turned out to be 1.2 ± 0.2 mmol/L, the “Total Cholesterol” value is recorded as 3.8 ± 0.5 mmol/L and the Triglyceride was determined as 2.1 ± 0.3 mmol/L. Besides, the “expression of PPAR-r mRNA” value in experiment [2] is on record as “not changed”. Besides, the LDLR promoter activity entry in experiment [3] is on record as “no effect”. In experiment [4], the “turnover rate (half-life) of InsR transcript” value is 4.7 h. Besides, in experiment [5], the “expressions of LucUTR-3 and Luc-UTR-4 or the wild type” value was “without affecting”; the “increase of level of Luc-UTR-2 mRNA” value is on record as 2.5 fold. In addition, the “cell surface InsR expression” value in experiment [6] is reported as “increased cell surface expression”. Also, in experiment [7], the “increase of cell surface LDLR protein expression” value is recorded as 4 times.
